Assay results as given in patent US20100298141A1, “SUBSTITUTED PYRIDINE N-OXIDE HERBICIDES” (E. I. DU PONT DE NEMOURS AND COMPANY, priority 2007, published 2010).

Key:
giant foxtail = test: Test A pre-/postemergence greenhouse test; assay type: in vivo, Setaria faberi; conditions: for Foxtail, Giant plant response rating: 0 to 100 scale; for Plant response rating, Foxtail, Giant: 0 to 100 scale where 0 is no effect and 100 is complete control
Summary of the method: (§1)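 Pre: directed soil spray on seeded loam/sand. Post: foliar spray, plants 2–10 cm, 1–2 leaf stage, applied concurrently. Vehicle: non-phytotoxic solvent + surfactant. Greenhouse ~10 d; visual injury rating vs untreated controls.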

morningglory = test: Test A pre-/postemergence greenhouse test; assay type: in vivo, Ipomoea spp.; conditions: for Morningglory plant response rating: 0 to 100 scale; for Plant response rating, Morningglory: 0 to 100 scale where 0 is no effect and 100 is complete control
Summary of the method: as §1

umbrella sedge = test: Test C flooded paddy test; assay type: in vivo, Cyperus difformis; conditions: Flood
Summary of the method: (§2)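 Test compounds are applied straight into paddy water held 3 cm above the soil surface, with that flood maintained for the whole test. After 13 to 15 days in the greenhouse, each species is scored visually relative to controls.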

barnyardgrass [1] = test: Test A pre-/postemergence greenhouse test; assay type: in vivo, Echinochloa crus-galli; conditions: for Barnyardgrass plant response rating: 0 to 100 scale; for Plant response rating, Barnyardgrass: 0 to 100 scale where 0 is no effect and 100 is complete control
Summary of the method: as §1

crabgrass = test: Test A pre-/postemergence greenhouse test; assay type: in vivo, Digitaria sanguinalis; conditions: for Crabgrass, Large plant response rating: 0 to 100 scale; for Plant response rating, Crabgrass, Large: 0 to 100 scale where 0 is no effect and 100 is complete control
Summary of the method: as §1

corn = test: Test A pre-/postemergence greenhouse test; assay type: in vivo, Zea mays; conditions: for Corn plant response rating: 0 to 100 scale; for Plant response rating, Corn: 0 to 100 scale where 0 is no effect and 100 is complete control
Summary of the method: as §1

barnyardgrass [2] = test: Test C flooded paddy test; assay type: in vivo, Echinochloa crus-galli; conditions: Flood
Summary of the method: as §2

rice = test: Test C flooded paddy test; assay type: in vivo, Oryza sativa; conditions: Flood
Summary of the method: as §2

redroot pigweed = test: Test A pre-/postemergence greenhouse test; assay type: in vivo, Amaranthus retroflexus; conditions: for Pigweed plant response rating: 0 to 100 scale; for Plant response rating, Pigweed: 0 to 100 scale where 0 is no effect and 100 is complete control
Summary of the method: as §1

wheat = test: Test A pre-/postemergence greenhouse test; assay type: in vivo, Triticum aestivum; conditions: for Wheat plant response rating: 0 to 100 scale; for Plant response rating, Wheat: 0 to 100 scale where 0 is no effect and 100 is complete control
Summary of the method: as §1

duck salad = test: Test C flooded paddy test; assay type: in vivo, Heteranthera limosa; conditions: Flood
Summary of the method: as §2

velvetleaf = test: Test A pre-/postemergence greenhouse test; assay type: in vivo, Abutilon theophrasti; conditions: for Velvetleaf plant response rating: 0 to 100 scale; for Plant response rating, Velvetleaf: 0 to 100 scale where 0 is no effect and 100 is complete control
Summary of the method: as §1

[3] = Postemergence, 125 g ai/ha, 0 is no effect, 100 is complete control
[4] = Postemergence, 500 g ai/ha, 0 is no effect, 100 is complete control
[5] = Preemergence, 125 g ai/ha, 0 no effect, 100 complete control
[6] = 31 g ai/ha, scale 0 to 100 (0 no effect, 100 complete control)
[7] = 62 g ai/ha, scale 0 to 100, 0 no effect, 100 complete control, 13 to 15 days
[8] = 125 g ai/ha, scale 0 to 100, 0 no effect, 100 complete control, 13 to 15 days
[9] = 250 g ai/ha, scale 0 to 100, 0 no effect, 100 complete control, 13 to 15 days

Cn1nc(C(F)(F)F)c(CS(=O)(=O)c2cc(Cl)cc[n+]2[O-])c1Cl [Compound 38]
30: Plant response rating, Foxtail, Giant (giant foxtail; Preemergence, 500 g ai/ha) | Barnyardgrass plant response rating (barnyardgrass [1]; [5])
0: Foxtail, Giant plant response rating (giant foxtail; [3]) | Foxtail, Giant plant response rating (giant foxtail; [4]) | Foxtail, Giant plant response rating (giant foxtail; [5]) | Morningglory plant response rating (morningglory; [3]) | Morningglory plant response rating (morningglory; [4]) | Morningglory plant response rating (morningglory; [5]) | Plant response rating, Morningglory (morningglory; Preemergence, 500 g ai/ha) | Plant response rating, Sedge, Umbrella (umbrella sedge; [6]) | Plant response rating, Sedge, Umbrella (umbrella sedge; [7]) | Plant response rating, Sedge, Umbrella (umbrella sedge; [8]) | Plant response rating, Sedge, Umbrella (umbrella sedge; [9]) | Barnyardgrass plant response rating (barnyardgrass [1]; [3]) | Barnyardgrass plant response rating (barnyardgrass [1]; [4]) | Crabgrass, Large plant response rating (crabgrass; [3]) | Crabgrass, Large plant response rating (crabgrass; [4]) | Crabgrass, Large plant response rating (crabgrass; [5]) | Plant response rating, Crabgrass, Large (crabgrass; Preemergence, 500 g ai/ha) | Corn plant response rating (corn; [3]) | Corn plant response rating (corn; [4]) | Corn plant response rating (corn; [5]) | Plant response rating, Corn (corn; Preemergence, 500 g ai/ha) | Plant response rating, Barnyardgrass (barnyardgrass [2]; [6]) | Plant response rating, Barnyardgrass (barnyardgrass [2]; [7]) | Plant response rating, Barnyardgrass (barnyardgrass [2]; [8]) | Plant response rating, Barnyardgrass (barnyardgrass [2]; [9]) | Plant response rating, Rice (rice; [6]) | Plant response rating, Rice (rice; [7]) | Plant response rating, Rice (rice; [8]) | Plant response rating, Rice (rice; [9]) | Pigweed plant response rating (redroot pigweed; [3]) | Pigweed plant response rating (redroot pigweed; [4]) | Pigweed plant response rating (redroot pigweed; [5]) | Plant response rating, Pigweed (redroot pigweed; Preemergence, 500 g ai/ha) | Wheat plant response rating (wheat; [3]) | Wheat plant response rating (wheat; [4]) | Wheat plant response rating (wheat; [5]) | Plant response rating, Wheat (wheat; Preemergence, 500 g ai/ha) | Plant response rating, Ducksalad (duck salad; [6]) | Plant response rating, Ducksalad (duck salad; [7]) | Plant response rating, Ducksalad (duck salad; [8]) | Plant response rating, Ducksalad (duck salad; [9]) | Velvetleaf plant response rating (velvetleaf; [3]) | Velvetleaf plant response rating (velvetleaf; [4]) | Velvetleaf plant response rating (velvetleaf; [5]) | Plant response rating, Velvetleaf (velvetleaf; Preemergence, 500 g ai/ha)
60: Plant response rating, Barnyardgrass (barnyardgrass [1]; Preemergence, 500 g ai/ha)

Cn1nc(C(F)(F)F)c(CS(=O)(=O)c2cc(F)cc[n+]2[O-])c1Cl [Compound 41]
80: Plant response rating, Sedge, Umbrella (umbrella sedge; [6]) | Plant response rating, Sedge, Umbrella (umbrella sedge; [7]) | Plant response rating, Sedge, Umbrella (umbrella sedge; [8]) | Plant response rating, Sedge, Umbrella (umbrella sedge; [9]) | Plant response rating, Ducksalad (duck salad; [9])
20: Plant response rating, Morningglory (morningglory; Preemergence, 500 g ai/ha)
15: Plant response rating, Rice (rice; [9])
75: Plant response rating, Ducksalad (duck salad; [6]) | Plant response rating, Ducksalad (duck salad; [7]) | Plant response rating, Ducksalad (duck salad; [8])
30: Plant response rating, Corn (corn; Preemergence, 500 g ai/ha)
0: Foxtail, Giant plant response rating (giant foxtail; [3]) | Foxtail, Giant plant response rating (giant foxtail; [4]) | Foxtail, Giant plant response rating (giant foxtail; [5]) | Plant response rating, Foxtail, Giant (giant foxtail; Preemergence, 500 g ai/ha) | Morningglory plant response rating (morningglory; [3]) | Morningglory plant response rating (morningglory; [4]) | Morningglory plant response rating (morningglory; [5]) | Barnyardgrass plant response rating (barnyardgrass [1]; [3]) | Barnyardgrass plant response rating (barnyardgrass [1]; [4]) | Barnyardgrass plant response rating (barnyardgrass [1]; [5]) | Crabgrass, Large plant response rating (crabgrass; [3]) | Crabgrass, Large plant response rating (crabgrass; [4]) | Crabgrass, Large plant response rating (crabgrass; [5]) | Plant response rating, Crabgrass, Large (crabgrass; Preemergence, 500 g ai/ha) | Corn plant response rating (corn; [3]) | Corn plant response rating (corn; [4]) | Corn plant response rating (corn; [5]) | Plant response rating, Barnyardgrass (barnyardgrass [2]; [6]) | Plant response rating, Barnyardgrass (barnyardgrass [2]; [7]) | Plant response rating, Barnyardgrass (barnyardgrass [2]; [8]) | Plant response rating, Barnyardgrass (barnyardgrass [2]; [9]) | Plant response rating, Rice (rice; [6]) | Plant response rating, Rice (rice; [7]) | Plant response rating, Rice (rice; [8]) | Pigweed plant response rating (redroot pigweed; [3]) | Pigweed plant response rating (redroot pigweed; [4]) | Pigweed plant response rating (redroot pigweed; [5]) | Plant response rating, Pigweed (redroot pigweed; Preemergence, 500 g ai/ha) | Wheat plant response rating (wheat; [3]) | Wheat plant response rating (wheat; [4]) | Wheat plant response rating (wheat; [5]) | Plant response rating, Wheat (wheat; Preemergence, 500 g ai/ha) | Velvetleaf plant response rating (velvetleaf; [3]) | Velvetleaf plant response rating (velvetleaf; [4]) | Velvetleaf plant response rating (velvetleaf; [5]) | Plant response rating, Velvetleaf (velvetleaf; Preemergence, 500 g ai/ha)
60: Plant response rating, Barnyardgrass (barnyardgrass [1]; Preemergence, 500 g ai/ha)

[O-][n+]1ccccc1[S+]([O-])Cc1c(C(F)(F)F)nn(CC(F)(F)F)c1Cl (stereo not shown) [Compound 43]
30: Plant response rating, Morningglory (morningglory; Postemergence, 125 g ai/ha) | Plant response rating, Sedge, Umbrella (umbrella sedge; [7]) | Plant response rating, Corn (corn; Postemergence, 125 g ai/ha) | Plant response rating, Rice (rice; [9]) | Plant response rating, Pigweed (redroot pigweed; Postemergence, 125 g ai/ha) | Velvetleaf plant response rating (velvetleaf; [5])
40: Plant response rating, Wheat (wheat; Postemergence, 125 g ai/ha) | Wheat plant response rating (wheat; [5])
90: Foxtail, Giant plant response rating (giant foxtail; [4]) | Plant response rating, Foxtail, Giant (giant foxtail; Preemergence, 500 g ai/ha) | Plant response rating, Barnyardgrass (barnyardgrass [1]; Preemergence, 500 g ai/ha) | Plant response rating, Crabgrass, Large (crabgrass; Preemergence, 500 g ai/ha) | Plant response rating, Pigweed (redroot pigweed; Preemergence, 500 g ai/ha)
20: Plant response rating, Velvetleaf (velvetleaf; Postemergence, 125 g ai/ha)
50: Plant response rating, Barnyardgrass (barnyardgrass [1]; Postemergence, 125 g ai/ha) | Corn plant response rating (corn; [4]) | Plant response rating, Corn (corn; Preemergence, 500 g ai/ha) | Plant response rating, Velvetleaf (velvetleaf; Preemergence, 500 g ai/ha)
80: Foxtail, Giant plant response rating (giant foxtail; [5]) | Morningglory plant response rating (morningglory; [4]) | Plant response rating, Morningglory (morningglory; Preemergence, 500 g ai/ha) | Barnyardgrass plant response rating (barnyardgrass [1]; [4]) | Crabgrass, Large plant response rating (crabgrass; [4])
60: Plant response rating, Barnyardgrass (barnyardgrass [2]; [9]) | Pigweed plant response rating (redroot pigweed; [4]) | Wheat plant response rating (wheat; [4]) | Plant response rating, Ducksalad (duck salad; [9]) | Velvetleaf plant response rating (velvetleaf; [4])
70: Plant response rating, Foxtail, Giant (giant foxtail; Postemergence, 125 g ai/ha) | Plant response rating, Sedge, Umbrella (umbrella sedge; [9]) | Barnyardgrass plant response rating (barnyardgrass [1]; [5]) | Plant response rating, Crabgrass, Large (crabgrass; Postemergence, 125 g ai/ha) | Crabgrass, Large plant response rating (crabgrass; [5]) | Plant response rating, Wheat (wheat; Preemergence, 500 g ai/ha)
0: Morningglory plant response rating (morningglory; [5]) | Corn plant response rating (corn; [5]) | Plant response rating, Barnyardgrass (barnyardgrass [2]; [7]) | Plant response rating, Rice (rice; [7]) | Pigweed plant response rating (redroot pigweed; [5]) | Plant response rating, Ducksalad (duck salad; [7])
